Measured values published in PMC8433221 (Scientific Reports, 2021).

Target: T1, PptAb-ACP complex (S2105A ACP) (Mycobacteroides abscessus, UniProt B1MD73)
T1 construct: gene MAB_3117c

Structure (SMILES): CCNC(=N)NC(=O)Nc1c(CC)cccc1CC [compound 1, 1-[(2,6-diethylphenyl)-3-N-ethylcarbamimodoyl]urea]
- X-ray crystallography, 2.5 Å, co-crystallisation: complex formed between PptAb and its cognate ACP domain in the presence of CoA
